Columns and labels:
patients = experiment: Human use, case histories; assay type: in vivo
Description: To evaluate the effect of sodium bisulphite in human use (this agent being known to be safe for human consumption), certain patients received this agent. The case history and observations are summarized individually below.
In each case, each patient was provided with a bottle of Solution D, unless otherwise noted, and was instructed to dose himself (or herself, as the case may be) from the bottle so provided at the rate of seven drops to be taken orally with each of his (her) three daily meals. When the contents of one such bottle were thus gradually consumed by an individual patient, another was provided.

F VIII = molecular target: T1, F VIII (Homo sapiens, UniProt P00451); experiment: Factor VIII assay, Example 4; assay type: biochemical; settings: for F VIII: Control 57
T1 construct: from tissue; host or cells: human plasma
T1 sequence (P00451 20-2351): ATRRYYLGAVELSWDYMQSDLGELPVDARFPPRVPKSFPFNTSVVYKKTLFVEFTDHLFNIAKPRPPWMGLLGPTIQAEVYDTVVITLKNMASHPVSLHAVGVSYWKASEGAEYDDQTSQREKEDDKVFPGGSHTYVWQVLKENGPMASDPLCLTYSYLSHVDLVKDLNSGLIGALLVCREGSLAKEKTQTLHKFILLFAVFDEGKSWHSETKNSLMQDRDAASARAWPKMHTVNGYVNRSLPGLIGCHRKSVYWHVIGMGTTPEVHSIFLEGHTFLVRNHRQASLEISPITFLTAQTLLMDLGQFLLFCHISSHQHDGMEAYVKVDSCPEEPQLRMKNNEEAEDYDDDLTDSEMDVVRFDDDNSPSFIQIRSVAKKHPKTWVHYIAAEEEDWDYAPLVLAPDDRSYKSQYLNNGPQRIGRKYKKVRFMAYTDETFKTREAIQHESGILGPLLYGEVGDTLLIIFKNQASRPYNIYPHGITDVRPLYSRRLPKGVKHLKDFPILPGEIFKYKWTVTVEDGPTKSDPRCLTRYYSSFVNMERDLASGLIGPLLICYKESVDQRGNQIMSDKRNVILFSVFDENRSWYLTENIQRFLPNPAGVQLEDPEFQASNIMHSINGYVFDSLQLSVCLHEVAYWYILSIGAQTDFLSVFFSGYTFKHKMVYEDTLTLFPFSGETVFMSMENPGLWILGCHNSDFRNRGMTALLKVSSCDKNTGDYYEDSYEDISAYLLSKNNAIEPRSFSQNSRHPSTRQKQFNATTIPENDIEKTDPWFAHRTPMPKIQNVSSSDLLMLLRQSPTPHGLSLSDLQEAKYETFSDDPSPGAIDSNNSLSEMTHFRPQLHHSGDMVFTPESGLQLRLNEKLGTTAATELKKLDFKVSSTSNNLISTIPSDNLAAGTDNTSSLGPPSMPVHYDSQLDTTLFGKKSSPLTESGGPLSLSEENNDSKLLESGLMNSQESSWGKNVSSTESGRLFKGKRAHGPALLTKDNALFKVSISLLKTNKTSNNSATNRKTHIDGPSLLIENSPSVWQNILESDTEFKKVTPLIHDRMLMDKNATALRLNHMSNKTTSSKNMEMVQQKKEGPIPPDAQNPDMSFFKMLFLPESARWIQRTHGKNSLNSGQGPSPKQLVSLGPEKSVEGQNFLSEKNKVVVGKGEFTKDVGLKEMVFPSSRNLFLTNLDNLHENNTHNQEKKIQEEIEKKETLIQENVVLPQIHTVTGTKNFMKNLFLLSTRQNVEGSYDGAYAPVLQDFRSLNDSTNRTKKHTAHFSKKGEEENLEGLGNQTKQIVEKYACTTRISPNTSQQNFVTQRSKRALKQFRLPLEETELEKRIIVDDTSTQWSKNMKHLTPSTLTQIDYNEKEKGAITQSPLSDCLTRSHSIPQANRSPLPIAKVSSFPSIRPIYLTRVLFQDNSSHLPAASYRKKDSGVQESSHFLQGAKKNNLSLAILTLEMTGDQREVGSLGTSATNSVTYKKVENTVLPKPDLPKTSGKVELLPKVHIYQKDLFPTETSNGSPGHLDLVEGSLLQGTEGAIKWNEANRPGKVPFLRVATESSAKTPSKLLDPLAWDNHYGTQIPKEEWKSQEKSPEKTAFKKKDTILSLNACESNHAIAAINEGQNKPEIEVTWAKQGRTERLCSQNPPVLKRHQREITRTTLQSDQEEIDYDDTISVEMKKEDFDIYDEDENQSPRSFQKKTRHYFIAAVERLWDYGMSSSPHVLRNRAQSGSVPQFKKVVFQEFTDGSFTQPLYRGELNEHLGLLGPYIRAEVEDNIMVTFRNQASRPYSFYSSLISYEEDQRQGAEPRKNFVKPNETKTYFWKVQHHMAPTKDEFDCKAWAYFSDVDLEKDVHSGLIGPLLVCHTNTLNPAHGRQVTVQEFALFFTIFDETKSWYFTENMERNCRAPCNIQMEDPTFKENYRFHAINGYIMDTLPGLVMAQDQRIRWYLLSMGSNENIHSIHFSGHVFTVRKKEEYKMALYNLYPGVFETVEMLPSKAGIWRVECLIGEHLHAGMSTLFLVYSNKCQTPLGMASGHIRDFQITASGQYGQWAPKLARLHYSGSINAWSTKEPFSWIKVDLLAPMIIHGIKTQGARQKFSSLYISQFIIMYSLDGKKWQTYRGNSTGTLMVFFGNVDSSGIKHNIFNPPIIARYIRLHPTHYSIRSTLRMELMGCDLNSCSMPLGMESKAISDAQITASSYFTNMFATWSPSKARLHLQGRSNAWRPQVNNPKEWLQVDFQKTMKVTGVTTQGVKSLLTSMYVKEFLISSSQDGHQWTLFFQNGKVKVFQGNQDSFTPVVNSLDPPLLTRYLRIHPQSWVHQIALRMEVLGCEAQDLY
Description: (§1) The evaluation procedure used is that described in "Human Blood Coagulation, Haemostasis and Thrombosis", edited by Rosemary Biggs, published by Blackwell Scientific Publications, Oxford, England (2nd Edition), pages 670-705, 1976. […]

human plasma = experiment: Thrombin Time, Example 4; assay type: biochemical; settings: Control 12.00
Description: as §1

Fibrinogen = molecular target: T2, Fibrinogen (Homo sapiens, UniProt P02671+P02675+P02679); experiment: Fibrinogen assay, Example 4; assay type: biochemical; settings: Control 218; for Fibrogen: solution D
T2 construct: from tissue; host or cells: human plasma
T2 sequence (P02671 20-629 limits assumed): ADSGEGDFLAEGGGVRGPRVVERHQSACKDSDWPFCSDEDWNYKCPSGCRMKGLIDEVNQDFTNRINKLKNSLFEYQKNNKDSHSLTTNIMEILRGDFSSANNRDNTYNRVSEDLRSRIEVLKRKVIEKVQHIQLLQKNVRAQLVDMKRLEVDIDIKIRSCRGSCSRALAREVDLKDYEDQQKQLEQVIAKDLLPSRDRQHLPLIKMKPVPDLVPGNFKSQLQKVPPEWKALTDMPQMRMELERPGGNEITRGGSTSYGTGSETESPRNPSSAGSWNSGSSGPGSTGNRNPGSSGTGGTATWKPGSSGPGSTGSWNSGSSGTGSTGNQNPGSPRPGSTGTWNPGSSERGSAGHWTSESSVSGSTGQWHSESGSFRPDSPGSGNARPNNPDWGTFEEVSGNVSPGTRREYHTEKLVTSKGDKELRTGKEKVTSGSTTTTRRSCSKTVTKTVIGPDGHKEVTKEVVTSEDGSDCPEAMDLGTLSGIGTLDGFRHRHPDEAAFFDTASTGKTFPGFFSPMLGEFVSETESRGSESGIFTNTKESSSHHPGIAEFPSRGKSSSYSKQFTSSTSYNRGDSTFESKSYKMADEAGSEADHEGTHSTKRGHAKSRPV
T2 sequence (P02675 31-491): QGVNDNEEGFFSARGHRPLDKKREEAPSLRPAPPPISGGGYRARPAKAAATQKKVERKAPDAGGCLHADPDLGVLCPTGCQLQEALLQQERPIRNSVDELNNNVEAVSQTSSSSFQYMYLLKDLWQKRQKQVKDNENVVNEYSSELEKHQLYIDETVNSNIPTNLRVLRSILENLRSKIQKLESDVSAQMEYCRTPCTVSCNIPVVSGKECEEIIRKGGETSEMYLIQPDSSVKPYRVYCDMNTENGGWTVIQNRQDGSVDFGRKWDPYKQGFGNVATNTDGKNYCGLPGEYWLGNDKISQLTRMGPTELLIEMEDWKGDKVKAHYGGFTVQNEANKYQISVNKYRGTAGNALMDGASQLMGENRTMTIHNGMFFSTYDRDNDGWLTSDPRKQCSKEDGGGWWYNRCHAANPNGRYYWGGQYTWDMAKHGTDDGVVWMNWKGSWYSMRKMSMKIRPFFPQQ
T2 sequence (P02679 27-453): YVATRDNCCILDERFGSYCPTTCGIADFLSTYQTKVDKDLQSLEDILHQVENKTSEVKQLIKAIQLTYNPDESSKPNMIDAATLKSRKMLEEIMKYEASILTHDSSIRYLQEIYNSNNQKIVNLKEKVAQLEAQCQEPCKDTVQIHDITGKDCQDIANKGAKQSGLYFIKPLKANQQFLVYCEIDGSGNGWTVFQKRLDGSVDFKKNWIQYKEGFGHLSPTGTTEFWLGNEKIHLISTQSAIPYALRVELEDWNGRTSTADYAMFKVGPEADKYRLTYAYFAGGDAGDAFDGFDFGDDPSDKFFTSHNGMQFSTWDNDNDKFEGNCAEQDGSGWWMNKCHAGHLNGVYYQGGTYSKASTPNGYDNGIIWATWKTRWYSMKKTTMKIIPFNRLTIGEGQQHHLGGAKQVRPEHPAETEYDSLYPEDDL
Description: as §1

[1] = PTT of coded and various agents, Example 6; assay type: biochemical; settings: Table V, coded agents 0.5 mg/ml; Control 43.38
Description: A variety of agents were coded and evaluated under a code designation. Among these compounds, thiouracil, mercaptosuccinic acid, thiosemicarbazide, phenothiazine and sodium thiosulphate were included, so as to compare sodium bisulphite with certain compounds mentioned in USP 4,148,855.
After determination of PT and PTT values, the coded compounds were decoded.
The results are shown in Table V, where mean values of 5 replications in each case are reported. […] This procedure was repeated with some additional compounds on two different days using a different control on each day.

[2] = Sodium bisulphite 0.01 mg/ml, solution D
[3] = Sodium bisulphite 0.05 mg/ml, solution D
[4] = Sodium bisulphite 0.1 mg/ml, solution D
[5] = Sodium bisulphite 0.5 mg/ml, solution D
[6] = Sodium bisulphite 1.0 mg/ml, solution D
[7] = Sodium bisulphite 5.0 mg/ml, solution D
[8] = chemical grade sodium bisulphite 0.01 mg/ml
[9] = chemical grade sodium bisulphite 0.05 mg/ml
[10] = chemical grade sodium bisulphite 0.1 mg/ml
[11] = chemical grade sodium bisulphite 0.5 mg/ml
[12] = chemical grade sodium bisulphite 1.0 mg/ml
[13] = chemical grade sodium bisulphite 5.0 mg/ml

In the case of Sodium bisulphite, the “Case IV: blood cholesterol value” (patients; after about 5 years, before between 200 and 220 mg %) is reported as “about 144 mg %”, the “Case IV: hypertension, arthritis, arrhythmia, haemorrhoids, dyspepsia, cyanotic fingers and toes, malaise (except diabetes)” value (patients; person, Solutions A, B, C or D orally, within 2-3 months) is reported as “improved” and the “F VIII” value (F VIII; [2]) is reported as 62%. For the same substance, the “F VIII” value (F VIII; [3]) was 68%, the “F VIII” value (F VIII; [4]) was 55% and the “F VIII” value (F VIII; [5]) was 58%. The “F VIII” value (F VIII; [6]) was 29%, the “F VIII” value (F VIII; [7]) was 11% and the “F VIII” value (F VIII; [8]) was 58. The “F VIII” value (F VIII; [9]) was 55, the “F VIII” value (F VIII; [10]) was 56 and the “F VIII” value (F VIII; [11]) was 55. The “F VIII” value (F VIII; [12]) was 31, the “F VIII” value (F VIII; [13]) was 13 and the “effect on Factor VIII” value (F VIII; human plasma) was “mildly affected”. The TT (human plasma; [2]) was 12.07 s, the TT (human plasma; [3]) was 12.10 s and the TT (human plasma; [4]) was 12.00 s. The TT (human plasma; [5]) was 13.97 s, the TT (human plasma; [6]) was 16.08 s and the TT (human plasma; [7]) was 34.3 s. It also gave a TT (human plasma; [8]) of 12.20 s, a TT (human plasma; [9]) of 12.30 s and a TT (human plasma; [10]) of 12.15 s. It also gave a TT (human plasma; [11]) of 14.53 s, a TT (human plasma; [12]) of 16.23 s and a TT (human plasma; [13]) of 35.5 s. For the same substance, the Fibrogen (Fibrinogen; Sodium bisulphite 0.01 mg/ml) was 222 mg%, the Fibrogen (Fibrinogen; Sodium bisulphite 0.05 mg/ml) was 228 mg% and the Fibrogen (Fibrinogen; Sodium bisulphite 0.1 mg/ml) was 217 mg%. For the same substance, the Fibrogen (Fibrinogen; Sodium bisulphite 0.5 mg/ml) was 190 mg%, the Fibrogen (Fibrinogen; Sodium bisulphite 1.0 mg/ml) was 185 mg% and the Fibrogen (Fibrinogen; Sodium bisulphite 5.0 mg/ml) was 130 mg%. It also gave a Fibrinogen (Fibrinogen; [8]) of 228 mg%, a Fibrinogen (Fibrinogen; [9]) of 245 mg% and a Fibrinogen (Fibrinogen; [10]) of 218 mg%. For the same substance, the Fibrinogen (Fibrinogen; [11]) was 182 mg%, the Fibrinogen (Fibrinogen; [12]) was 184 mg% and the Fibrinogen (Fibrinogen; [13]) was 119 mg%. The “PTT” value [1] was 114.80 s.

— patent EP0055702B1, “Antithrombotic treatment” (priority 1980, dated 1982)
